Assay results: patent US11174245B2, “Benzimidazole compounds and derivatives as EGFR inhibitors” (Boehringer Ingelheim International GmbH, priority 2018, dated 2021)
Where two headings read alike, the source gives them in different places.

Tests used:
[1] = molecular target: EGFR (mutated) 695-1022, T790M, C797S, L858R (Homo sapiens (Human), UniProt P00533, C797S/L858R/T790M); test: Biochemical EGFR inhibition assay (TR-FRET, poly-GT substrate), EGFR T790M C797S L858R
Method: (§1) Biochemical EGFR Inhibition Assays
(§2) Initially, the inhibitory effect of compounds according to the invention is measured in biochemical assays which measure the phosphorylation activity of EGFR enzyme forms on poly-GT substrate in the presence of different concentrations of ATP (5 μM and 100 μM final assay concentration).
(§3) The following enzyme forms of EGFR are representative examples that can be used in these assays at the given concentrations:
(§4) For the chosen highest assay concentration of 100 μM, 150 nL of compound solution is transferred from a 10 mM DMSO compound stock solution. A series of eleven fivefold dilutions per compound is transferred to the assay plate, compound dilutions are tested in duplicates. DMSO is added as backfill to a total volume of 150 nL. The assay runs on a fully automated robotic system.
(§5) These biochemical EGFR enzyme form compound dose-response assays quantify the kinase activity via phosphorylation of a tagged poly-GT substrate. The results of the assay are provided as IC50 values.

EGFR wt = EGFR wt (Homo sapiens (Human), UniProt P00533); test: Biochemical EGFR inhibition assay (TR-FRET, poly-GT substrate), EGFR wt
Method: as §1, §2, §3, §4, §5

[2] = molecular target: EGFR del19 T790M C797S protein in Ba/F3 cells (Homo sapiens, UniProt P00533, C797S/DEL746-750/T790M); test: pEGFR assay (AlphaScreen Surefire, EGFR Tyr1068 phosphorylation); assay type: cell-based
Method: Transduced cells were selected using puromycin. Following selection, IL-3 was withdrawn and IL-3 independent cells cultured. p-EGFR Tyr1068 was determined using the AlphaScreen Surefire pEGF Receptor (Tyr1068) Assay (PerkinElmer, TGRERS). […] Subsequently, 60.000 cells/well in 60 μL were added. Cells were incubated with compound for 4 h at 37° C. […] The mixture was incubated at room temperature with shaking (700 rpm) for 20 min. After centrifugation, 4 μL of the lysate were transferred to Proxiplates. […] Plates were shaken for 1 min (1400 rpm) and incubated for 2 h at room temperature in the dark.
The results of the assay are provided as IC50 values (see table 12).

[3] = read-out: LR_TM_CS (5 μM ATP) IC50, 5 μM ATP
[4] = read-out: wt (5 μM ATP) IC50, 5 μM ATP
[5] = read-out: LR_TM_CS (100 μM ATP) IC50, 100 μM ATP
[6] = read-out: wt (100 μM ATP) IC50, 100 μM ATP

Sequence of EGFR wt (P00533 25-1210): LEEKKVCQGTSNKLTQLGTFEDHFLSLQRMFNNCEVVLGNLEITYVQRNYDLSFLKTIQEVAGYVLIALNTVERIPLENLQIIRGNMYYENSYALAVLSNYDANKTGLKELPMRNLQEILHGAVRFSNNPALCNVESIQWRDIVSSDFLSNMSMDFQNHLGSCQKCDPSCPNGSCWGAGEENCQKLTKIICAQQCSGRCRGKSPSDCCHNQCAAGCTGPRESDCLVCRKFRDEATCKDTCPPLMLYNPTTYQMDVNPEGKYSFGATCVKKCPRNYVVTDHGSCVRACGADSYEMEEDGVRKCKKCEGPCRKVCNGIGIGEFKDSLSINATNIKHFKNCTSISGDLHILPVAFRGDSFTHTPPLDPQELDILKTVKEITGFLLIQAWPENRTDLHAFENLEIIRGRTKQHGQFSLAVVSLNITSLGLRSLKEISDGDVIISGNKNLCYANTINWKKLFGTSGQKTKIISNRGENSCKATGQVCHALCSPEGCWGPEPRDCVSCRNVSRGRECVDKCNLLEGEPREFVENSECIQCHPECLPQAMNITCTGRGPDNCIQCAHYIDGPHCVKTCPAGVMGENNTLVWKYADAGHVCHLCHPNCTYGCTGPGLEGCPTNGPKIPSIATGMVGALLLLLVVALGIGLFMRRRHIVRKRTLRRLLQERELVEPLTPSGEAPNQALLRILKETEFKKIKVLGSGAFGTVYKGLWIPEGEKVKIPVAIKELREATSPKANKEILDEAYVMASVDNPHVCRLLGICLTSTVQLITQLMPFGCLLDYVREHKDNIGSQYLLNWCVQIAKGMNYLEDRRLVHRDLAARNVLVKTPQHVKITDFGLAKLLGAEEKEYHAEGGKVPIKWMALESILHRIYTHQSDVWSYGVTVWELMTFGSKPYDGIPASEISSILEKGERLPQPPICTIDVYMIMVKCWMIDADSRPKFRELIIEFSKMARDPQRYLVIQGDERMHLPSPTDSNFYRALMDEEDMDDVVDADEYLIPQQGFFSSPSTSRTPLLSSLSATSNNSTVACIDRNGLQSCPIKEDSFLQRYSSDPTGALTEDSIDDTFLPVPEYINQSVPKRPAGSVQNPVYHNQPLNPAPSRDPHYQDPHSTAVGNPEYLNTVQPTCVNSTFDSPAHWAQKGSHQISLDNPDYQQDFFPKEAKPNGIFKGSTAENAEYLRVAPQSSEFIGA
Sequence of EGFR (mutated) 695-1022, T790M, C797S, L858R (P00533 695-1022 T790M/C797S/L858R): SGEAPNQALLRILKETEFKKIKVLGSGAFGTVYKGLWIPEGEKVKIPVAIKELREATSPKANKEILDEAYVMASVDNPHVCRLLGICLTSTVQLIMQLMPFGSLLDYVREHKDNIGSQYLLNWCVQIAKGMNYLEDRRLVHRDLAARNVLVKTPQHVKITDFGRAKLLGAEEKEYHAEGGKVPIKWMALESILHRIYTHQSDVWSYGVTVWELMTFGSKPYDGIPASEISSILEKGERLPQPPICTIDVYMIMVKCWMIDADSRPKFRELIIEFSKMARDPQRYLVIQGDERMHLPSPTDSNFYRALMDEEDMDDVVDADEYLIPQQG
Sequence of EGFR del19 T790M C797S protein in Ba/F3 cells (P00533 with tags, fused parts or gaps C797S/DEL746-750/T790M limits assumed): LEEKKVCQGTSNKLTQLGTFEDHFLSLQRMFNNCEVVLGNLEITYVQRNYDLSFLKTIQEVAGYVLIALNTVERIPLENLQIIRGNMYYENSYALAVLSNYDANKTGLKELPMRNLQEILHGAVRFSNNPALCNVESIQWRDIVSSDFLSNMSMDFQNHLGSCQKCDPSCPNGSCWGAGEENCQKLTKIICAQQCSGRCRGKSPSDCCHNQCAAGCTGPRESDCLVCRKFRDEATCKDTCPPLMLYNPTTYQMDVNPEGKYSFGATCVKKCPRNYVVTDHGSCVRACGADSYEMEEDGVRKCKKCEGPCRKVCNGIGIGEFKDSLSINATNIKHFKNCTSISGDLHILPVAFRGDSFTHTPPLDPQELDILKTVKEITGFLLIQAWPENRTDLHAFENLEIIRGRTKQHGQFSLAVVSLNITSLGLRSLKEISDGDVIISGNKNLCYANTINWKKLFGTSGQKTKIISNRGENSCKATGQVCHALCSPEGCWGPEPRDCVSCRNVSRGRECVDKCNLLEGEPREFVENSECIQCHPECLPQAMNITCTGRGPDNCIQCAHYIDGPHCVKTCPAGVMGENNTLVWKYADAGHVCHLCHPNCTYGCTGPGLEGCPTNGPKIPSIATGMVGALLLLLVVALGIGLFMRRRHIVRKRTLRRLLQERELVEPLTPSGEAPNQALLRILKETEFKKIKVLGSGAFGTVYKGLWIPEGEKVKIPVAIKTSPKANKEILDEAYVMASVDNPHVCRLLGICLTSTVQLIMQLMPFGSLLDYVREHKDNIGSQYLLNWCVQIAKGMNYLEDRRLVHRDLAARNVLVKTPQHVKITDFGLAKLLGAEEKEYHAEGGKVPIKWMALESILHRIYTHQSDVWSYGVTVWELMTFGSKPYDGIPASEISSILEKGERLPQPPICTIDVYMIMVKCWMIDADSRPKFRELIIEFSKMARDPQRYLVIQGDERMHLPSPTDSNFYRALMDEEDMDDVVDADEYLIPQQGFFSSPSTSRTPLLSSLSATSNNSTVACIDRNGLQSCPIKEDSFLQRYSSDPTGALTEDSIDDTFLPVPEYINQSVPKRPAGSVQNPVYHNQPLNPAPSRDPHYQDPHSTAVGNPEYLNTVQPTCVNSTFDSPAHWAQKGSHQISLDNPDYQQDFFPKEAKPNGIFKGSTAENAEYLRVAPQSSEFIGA

Row | Compound | IC50 [1, 3] [µM] | IC50 (EGFR wt; [4]) [µM] | IC50 [2] [µM] | IC50 [1, 5] [µM] | IC50 (EGFR wt; [6]) [µM]
1 | COc1ccccc1-c1cc(C(=O)/N=c2\[nH]c3cc(CN4CCOCC4)ccc3n2[C@H]2CCC[C@H](O)C2)ccn1 [I-181] | 0.0017 | 0.031 | 0.012 |  | 
2 | O=C(/N=c1\[nH]c2ccccc2n1[C@H]1CC[C@@H](O)CC1)c1ccnc(-c2cccc(F)c2)c1 [I-185] | 0.0356 | 3.24 | 0.023 |  | 
3 | COc1ccccc1-c1cc(C(=O)/N=c2\[nH]c3ccccc3n2[C@H]2CC[C@H](O)[C@H](O)C2)ccn1 [I-149] | 0.0085 | 0.148 | 0.004 |  | 
4 | COc1c(C)cccc1-c1cc(C(=O)/N=c2\[nH]c3ccccc3n2[C@H]2CC[C@@H](O)CC2)ccn1 [I-162] | 0.0142 | 1.18 | 0.006 |  | 
5 | O=C(/N=c1\[nH]c2ccccc2n1[C@H]1CC[C@@H](O)CC1)c1ccnc(-c2ccc(F)cc2F)c1 [I-180] | 0.0048 | 0.302 | 0.012 |  | 
6 | CC(=O)N1CCC(c2ccc3c(c2)[nH]/c(=N\C(=O)c2cc(C#N)nc(-c4cnn(C)c4)c2)n3[C@H]2CC[C@@H](O)CC2)CC1 [I-202] | 0.0009 | 0.173 | 0.005 |  | 
7 | Cc1ccc2c(c1)[nH]/c(=N\C(=O)c1ccnc(-c3cccc(CN(C)C)c3)c1)n2[C@H]1CC[C@@H](O)CC1 [I-111] |  |  | 0.004 | 0.0103 | 7.04
8 | Cc1cc(C(=O)/N=c2\[nH]c3cc(CN4CCOCC4)ccc3n2[C@H]2CC[C@@H](O)CC2)cc(-c2cnn(C)c2)n1 [I-197] | 0.0027 | 5.01 | 0.007 |  | 
9 | Cn1cc(-c2cc(C(=O)/N=c3\[nH]c4ccccc4n3[C@H]3CCC[C@@H](O)C3)ccn2)cn1 [I-126] | 0.0031 | 0.305 | 0.006 |  | 
10 | COc1ccccc1-c1cc(C(=O)/N=c2\[nH]c3ccccc3n2[C@@H]2CC[C@H](O)[C@H](O)C2)ccn1 [I-144] | 0.0069 | 0.11 | 0.003 |  | 
11 | Cn1cc(-c2cc(C(=O)/N=c3\[nH]c4ccccc4n3[C@H]3COC[C@@H](O)C3)ccn2)cn1 [I-191] | 0.0074 | 1.66 | 0.044 |  | 
12 | COc1ccccc1-c1cc(C(=O)/N=c2\[nH]c3ccccc3n2[C@@H]2CC[C@H](O)[C@@H](O)C2)ccn1 [I-198] | 0.0077 | 0.0771 | 0.018 |  | 
13 | Cn1cc(-c2cc(C(=O)/N=c3\[nH]c4cc(CN5CCOCC5)ccc4n3[C@H]3CC[C@@H](O)CC3)cc(C#N)n2)cn1 [I-145] | 0.0017 | 0.397 | 0.003 |  | 
14 | Cn1cc(-c2cc(C(=O)/N=c3\[nH]c4ccccc4n3[C@H]3CCC[C@H](O)C3)ccn2)cn1 [I-116] | 0.0007 | 0.104 | 0.001 |  | 
15 | Cc1cc(C(=O)/N=c2\[nH]c3ccccc3n2[C@H]2CCC[C@H](O)C2)cc(-c2cnn(C)c2)n1 [I-204] | 0.0262 | 9.29 | 0.006 |  | 
16 | O=C(/N=c1\[nH]c2ccccc2n1[C@H]1CC[C@@H](O)CC1)c1ccnc(-c2cnn3cccnc23)c1 [I-115] |  |  | 0.001 | 0.0058 | 2.42
17 | COc1ccncc1-c1cc(C(=O)/N=c2\[nH]c3ccccc3n2CC(C)(C)O)ccn1 [I-018] |  |  | 0.001 | 0.0119 | 10
18 | Cc1ccc2c(c1)[nH]/c(=N\C(=O)c1ccnc(-c3cnn4cccnc34)c1)n2[C@H]1CC[C@@H](O)CC1 [I-110] |  |  | 0.001 | 0.0037 | 4.42
19 | Cc1cc(C(=O)/N=c2\[nH]c3ccccc3n2[C@@H]2C[C@H](O)C[C@H](O)C2)cc(-c2cnn(C)c2)n1 [I-206] | 0.0177 | 12.9 | 0.037 |  | 

Row | Compound | IC50 [1, 3] [µM] | IC50 (EGFR wt; [4]) [µM] | IC50 [2] [µM] | IC50 [1, 5] [µM] | IC50 (EGFR wt; [6]) [µM]
20 | Cn1cc(-c2cc(C(=O)/N=c3\[nH]c4cc(CN5CCOCC5)ccc4n3[C@H]3CC[C@@H](O)CC3)cc(F)n2)cn1 [I-135] | 0.0008 | 0.225 | 0.002 |  | 
21 | COc1c(F)cccc1-c1cc(C(=O)/N=c2\[nH]c3ccccc3n2[C@H]2CC[C@@H](O)CC2)ccn1 [I-175] | 0.0136 | 0.557 | 0.01 |  | 
22 | O=C(/N=c1\[nH]c2ccccc2n1[C@H]1CC[C@@H](O)CC1)c1ccnc(-c2ccccc2F)c1 [I-141] | 0.002 | 0.312 | 0.002 |  | 
23 | COCCCNc1ccc2c(c1)[nH]/c(=N\C(=O)c1ccnc(-c3cccnc3)c1)n2CC(C)(C)O [I-78] |  |  | 0.005 | 0.0952 | 21.1
24 | CC(C)(O)Cn1/c(=N/C(=O)c2ccnc(-c3cccnc3)c2)[nH]c2cc(CCO)ccc21 [I-056] | 0.118 | > 100 | 0.005 |  | 
25 | O=C(/N=c1\[nH]c2ccccc2n1[C@H]1CC[C@@H](O)CC1)c1ccnc(-c2cccn3ncnc23)c1 [I-179] | 0.0338 | 3.6 | 0.012 |  | 
26 | COc1ccccc1-c1cc(C(=O)/N=c2\[nH]c3cc(CN4CCOCC4)ccc3n2[C@H]2CCC[C@@H](O)C2)ccn1 [I-148] | 0.0033 | 0.0778 | 0.004 |  | 
27 | C#Cc1cc(C(=O)/N=c2\[nH]c3ccccc3n2[C@H]2CC[C@@H](O)CC2)cc(-c2cnn(C)c2)n1 [I-171] | 0.0088 | 2.97 | 0.008 |  | 
28 | Cn1cc(-c2cc(C(=O)/N=c3\[nH]c4ccccc4n3[C@H]3CC[C@@H](O)CC3)cc(Cl)n2)cn1 [I-146] | 0.0028 | 1.54 | 0.005 |  | 
29 | O=C(/N=c1\[nH]c2ccccc2n1[C@H]1CC[C@@H](O)CC1)c1ccnc(-c2ccncc2)c1 [I-176] | 0.004 | 0.293 | 0.011 |  | 
30 | Cn1cc(-c2cc(C(=O)/N=c3\[nH]c4ccccc4n3[C@H]3CCC[C@@H](O)C3)ccn2)cn1 [I-112] | 0.0031 | 0.777 | 0.013 |  | 
31 | Cn1cc(-c2cc(C(=O)/N=c3\[nH]c4ccccc4n3[C@H]3C[C@H](O)C[C@H](O)C3)ccn2)cn1 [I-207] | 0.003 | 0.539 | 0.026 |  | 
32 | COc1ccncc1-c1cc(C(=O)/N=c2\[nH]c3cc(CN4CCOCC4)ccc3n2[C@H]2CC[C@@H](O)CC2)cc(C#N)n1 [I-196] | 0.003 | 1.4 | 0.005 |  | 
33 | Cn1cc(-c2cc(C(=O)/N=c3\[nH]c4cc(C5CCN(C6CC6)CC5)ccc4n3CC(C)(C)O)ccn2)cn1 [I-042] |  |  | 0.003 | 0.0243 | 14.6
34 | Cn1cc(-c2cc(C(=O)/N=c3\[nH]c4ccccc4n3[C@H]3CCC[C@H](O)C3)cc(C#N)n2)cn1 [I-210] | 0.0043 | 0.664 | 0.009 |  | 
35 | COc1cc(F)ccc1-c1cc(C(=O)/N=c2\[nH]c3ccccc3n2[C@H]2CC[C@@H](O)CC2)ccn1 [I-169] | 0.0028 | 0.0816 | 0.011 |  | 
36 | COc1ccccc1-c1cc(C(=O)/N=c2\[nH]c3ccccc3n2CC(C)(C)O)ccn1 [I-105] | 0.0007 |  | 0.002 | 0.0103 | 1.8
37 | CC(C)(O)Cn1/c(=N/C(=O)c2ccnc(-c3cccn4cnnc34)c2)[nH]c2ccccc21 [I-91] | 0.0611 | 14.7 | 0.016 |  | 
